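Following 48 hours of exposure in 96-well plates, responses at five concentrations were used to interpolate endpoints linearly. GI50 marks 50% less growth.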 Active and inactive are the calls of the source. Rule as the data show it: active = GI50 up to about 1.1 µM and inactive = higher.
Experiments:
Test in all cases: DTP human tumour cell line panel, 48 h
[1] = test system: A549
[2] = test system: MOLT-4
[3] = test system: CCRF-CEM
[4] = test system: SK-OV-3
[5] = test system: SN12C
[6] = test system: M19-MEL
[7] = test system: K562
[8] = test system: NCI-H226
[9] = test system: HOP-62
[10] = test system: NCI-H522
[11] = test system: COLO 205
[12] = test system: RPMI-8226
[13] = test system: SF-268
[14] = test system: HT-29
[15] = test system: SK-MEL-2
[16] = test system: IGROV-1
[17] = test system: UO-31
[18] = test system: HL-60
[19] = test system: NCI-H460
[20] = test system: SK-MEL-28
[21] = test system: SNB-75
[22] = test system: OVCAR-3
[23] = test system: DLD-1
[24] = test system: HCT-116
[25] = test system: CAKI-1
[26] = test system: HOP-92
[27] = test system: UACC-62
[28] = test system: UACC-257
[29] = test system: HOP-18
[30] = test system: DMS-273
[31] = test system: KM-20L2
[32] = test system: OVCAR-5
[33] = test system: LXFL 529
[34] = test system: Malme-3M
[35] = test system: TK-10
[36] = test system: 786-0
[37] = test system: SF-539
[38] = test system: LOX IMVI
[39] = test system: OVCAR-8
[40] = test system: SNB-78
[41] = test system: SW-620
[42] = test system: SK-MEL-5
[43] = test system: KM12
[44] = test system: HCT-15
[45] = test system: ACHN
[46] = test system: NCI-H23
[47] = test system: OVCAR-4
[48] = test system: RXF 393
[49] = test system: M14
[50] = test system: SF-295
[51] = test system: DMS-114
[52] = test system: U-251
[53] = test system: SR
[54] = test system: EKVX
[55] = test system: HCC 2998
[56] = test system: SNB-19
[57] = test system: A498

Compound: COc1cc(C(C#N)NNC(=O)Cc2ccccc2)cc(OC)c1OC (configuration not stated)
- GI50 [1]: > 100 µM (inactive)
- GI50 [2]: > 100 µM (inactive)
- GI50 [3]: > 10 µM (inactive)
- GI50 [4]: > 100 µM (inactive)
- GI50 [5]: > 100 µM (inactive)
- GI50 [6]: > 100 µM (inactive)
- GI50 [7]: > 100 µM (inactive)
- GI50 [8]: > 100 µM (inactive)
- GI50 [9]: > 100 µM (inactive)
- GI50 [10]: > 100 µM (inactive)
- GI50 [11]: > 100 µM (inactive)
- GI50 [12]: > 100 µM (inactive)
- GI50 [13]: > 100 µM (inactive)
- GI50 [14]: > 100 µM (inactive)
- GI50 [15]: > 100 µM (inactive)
- GI50 [16]: > 100 µM (inactive)
- GI50 [17]: 72.3 µM (inactive)
- GI50 [18]: > 100 µM (inactive)
- GI50 [19]: > 100 µM (inactive)
- GI50 [20]: > 100 µM (inactive)
- GI50 [21]: 35.5 µM (inactive)
- GI50 [22]: > 100 µM (inactive)
- GI50 [23]: > 100 µM (inactive)
- GI50 [24]: > 100 µM (inactive)
- GI50 [25]: > 100 µM (inactive)
- GI50 [26]: 95.3 µM (inactive)
- GI50 [27]: > 100 µM (inactive)
- GI50 [28]: > 100 µM (inactive)
- GI50 [29]: > 100 µM (inactive)
- GI50 [30]: > 100 µM (inactive)
- GI50 [31]: > 100 µM (inactive)
- GI50 [32]: > 100 µM (inactive)
- GI50 [33]: > 100 µM (inactive)
- GI50 [34]: > 100 µM (inactive)
- GI50 [35]: > 100 µM (inactive)
- GI50 [36]: > 100 µM (inactive)
- GI50 [37]: > 100 µM (inactive)
- GI50 [38]: > 100 µM (inactive)
- GI50 [39]: > 100 µM (inactive)
- GI50 [40]: > 100 µM (inactive)
- GI50 [41]: > 100 µM (inactive)
- GI50 [42]: > 100 µM (inactive)
- GI50 [43]: > 100 µM (inactive)
- GI50 [44]: > 100 µM
- GI50 [45]: > 100 µM (inactive)
- GI50 [46]: > 100 µM (inactive)
- GI50 [47]: > 100 µM (inactive)
- GI50 [48]: > 100 µM (inactive)
- GI50 [49]: > 100 µM (inactive)
- GI50 [50]: > 100 µM (inactive)
- GI50 [51]: 99.1 µM (inactive)
- GI50 [52]: > 100 µM (inactive)
- GI50 [53]: > 100 µM (inactive)

Compound: CC(=O)C1=NN(c2ccccc2)C2(S1)SC(c1ccccc1)(c1ccccc1)c1ccccc12 (configuration not stated)
- GI50 [1]: 36.7 µM (inactive)
- GI50 [2]: 27.8 µM (inactive)
- GI50 [3]: 49.3 µM (inactive)
- GI50 [4]: 30.8 µM (inactive)
- GI50 [5]: > 100 µM (inactive)
- GI50 [6]: 47.8 µM (inactive)
- GI50 [7]: 32.4 µM (inactive)
- GI50 [8]: 16.1 µM (inactive)
- GI50 [9]: 34.6 µM (inactive)
- GI50 [10]: 22.9 µM (inactive)
- GI50 [11]: > 100 µM (inactive)
- GI50 [12]: 44.1 µM (inactive)
- GI50 [13]: 40.1 µM (inactive)
- GI50 [14]: 95.3 µM (inactive)
- GI50 [15]: 27 µM (inactive)
- GI50 [16]: 33.1 µM (inactive)
- GI50 [17]: > 100 µM (inactive)
- GI50 [18]: 19.9 µM (inactive)
- GI50 [19]: 32.3 µM (inactive)
- GI50 [20]: > 100 µM (inactive)
- GI50 [21]: 19.3 µM (inactive)
- GI50 [22]: 51.3 µM (inactive)
- GI50 [23]: 61.4 µM (inactive)
- GI50 [24]: 24.4 µM (inactive)
- GI50 [26]: 10.4 µM (inactive)
- GI50 [27]: 17.9 µM (inactive)
- GI50 [28]: 34.4 µM (inactive)
- GI50 [29]: > 100 µM (inactive)
- GI50 [30]: 17.6 µM (inactive)
- GI50 [54]: > 100 µM (inactive)
- GI50 [31]: > 100 µM (inactive)
- GI50 [33]: 15.2 µM (inactive)
- GI50 [34]: 37.4 µM (inactive)
- GI50 [35]: 63.7 µM (inactive)
- GI50 [36]: 34.5 µM (inactive)
- GI50 [37]: 60.8 µM (inactive)
- GI50 [38]: 61.5 µM (inactive)
- GI50 [39]: 34.9 µM (inactive)
- GI50 [40]: 30.8 µM (inactive)
- GI50 [55]: > 100 µM (inactive)
- GI50 [41]: 99.1 µM (inactive)
- GI50 [43]: 74.5 µM (inactive)
- GI50 [44]: > 100 µM
- GI50 [45]: 42.3 µM (inactive)
- GI50 [46]: 27.2 µM (inactive)
- GI50 [47]: 24.2 µM (inactive)
- GI50 [56]: 62.2 µM (inactive)
- GI50 [48]: 13.2 µM (inactive)
- GI50 [57]: 89.7 µM (inactive)
- GI50 [49]: 44.8 µM (inactive)
- GI50 [50]: 26.9 µM (inactive)
- GI50 [51]: 32.5 µM (inactive)
- GI50 [52]: 44.7 µM (inactive)
- GI50 [53]: 20.4 µM (inactive)

— ChEMBL document CHEMBL1201862, “PubChem BioAssay data set” (2004)
